In brackets after ≈: the same amount, converted by molar mass.
Assays:
DNA gyrase [1] = target: DNA gyrase (Escherichia coli, UniProt P0AES4+P0AES6); experiment: Inhibition of Escherichia coli DNA gyrase; type: protein-complex assay
Topoisomerase IV = Topoisomerase IV (Staphylococcus aureus, UniProt P0C1S7+P0C1U9); experiment: Inhibition of Staphylococcus aureus DNA topoisomerase 4; type: protein-complex assay
DNA gyrase [2] = target: DNA gyrase (Staphylococcus aureus, UniProt P0A0K8+P20831); experiment: Inhibition of Staphylococcus aureus DNA gyrase; type: protein-complex assay
DNA gyrase (Staphylococcus aureus, UniProt P0A0K8+P20831), sequence (P0A0K8 whole entry): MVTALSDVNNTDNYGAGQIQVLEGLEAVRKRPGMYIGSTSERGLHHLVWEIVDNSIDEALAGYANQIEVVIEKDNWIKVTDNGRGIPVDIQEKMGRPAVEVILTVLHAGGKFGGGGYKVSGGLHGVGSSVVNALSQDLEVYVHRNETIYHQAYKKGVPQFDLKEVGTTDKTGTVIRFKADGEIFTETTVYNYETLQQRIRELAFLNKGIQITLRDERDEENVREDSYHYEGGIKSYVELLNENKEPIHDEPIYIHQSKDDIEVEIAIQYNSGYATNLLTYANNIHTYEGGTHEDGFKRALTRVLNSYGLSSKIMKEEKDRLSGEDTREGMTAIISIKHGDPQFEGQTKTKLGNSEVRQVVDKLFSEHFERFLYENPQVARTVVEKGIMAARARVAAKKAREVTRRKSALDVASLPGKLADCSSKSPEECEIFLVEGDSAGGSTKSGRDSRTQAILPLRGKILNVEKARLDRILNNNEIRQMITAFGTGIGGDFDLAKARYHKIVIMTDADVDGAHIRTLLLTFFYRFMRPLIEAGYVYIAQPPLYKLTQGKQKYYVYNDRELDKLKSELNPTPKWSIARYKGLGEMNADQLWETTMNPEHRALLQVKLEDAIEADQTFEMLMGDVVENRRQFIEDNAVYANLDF
DNA gyrase (Staphylococcus aureus, UniProt P0A0K8+P20831), sequence (P20831 whole entry): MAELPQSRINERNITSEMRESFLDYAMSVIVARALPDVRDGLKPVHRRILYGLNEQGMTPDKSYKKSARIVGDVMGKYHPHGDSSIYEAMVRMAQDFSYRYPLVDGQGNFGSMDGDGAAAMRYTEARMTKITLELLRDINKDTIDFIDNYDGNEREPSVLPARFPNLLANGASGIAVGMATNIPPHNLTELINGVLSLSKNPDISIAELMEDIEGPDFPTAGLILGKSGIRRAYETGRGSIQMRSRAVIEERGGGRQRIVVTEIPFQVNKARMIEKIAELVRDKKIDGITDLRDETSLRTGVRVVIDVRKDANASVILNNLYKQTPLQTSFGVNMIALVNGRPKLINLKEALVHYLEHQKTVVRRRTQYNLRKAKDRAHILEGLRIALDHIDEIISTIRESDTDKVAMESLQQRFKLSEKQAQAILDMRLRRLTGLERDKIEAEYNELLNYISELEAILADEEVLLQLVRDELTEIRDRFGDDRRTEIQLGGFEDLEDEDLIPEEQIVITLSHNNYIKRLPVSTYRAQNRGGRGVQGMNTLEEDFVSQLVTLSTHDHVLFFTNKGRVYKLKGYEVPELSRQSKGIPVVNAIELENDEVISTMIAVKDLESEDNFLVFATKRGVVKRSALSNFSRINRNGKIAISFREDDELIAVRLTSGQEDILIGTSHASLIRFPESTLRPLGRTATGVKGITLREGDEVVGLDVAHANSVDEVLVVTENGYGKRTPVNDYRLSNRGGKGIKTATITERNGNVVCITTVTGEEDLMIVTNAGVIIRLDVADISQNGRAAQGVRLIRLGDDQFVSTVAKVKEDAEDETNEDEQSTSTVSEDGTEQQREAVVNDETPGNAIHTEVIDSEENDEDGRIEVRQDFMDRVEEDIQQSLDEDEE

Escherichia coli [3] = experiment: Antibacterial activity against Escherichia coli; type: functional
[4] = Inhibition of Escherichia coli DNA topoisomerase 4
Staphylococcus aureus [5] = experiment: Antibacterial activity against Staphylococcus aureus; type: functional
HT-29 = experiment: Cytotoxicity against human HT-29 cells after 24 hrs by resazurin dye based CellTiter-Blue assay; type: cell-based; details: HT-29, 24 h
Staphylococcus aureus [6] = experiment: Antibacterial activity against Staphylococcus aureus BAA-1720 in presence of 50% human serum after 16 to 24 hrs by broth microdilution method; type: functional
Staphylococcus aureus [7] = experiment: Selectivity ratio of MIC for Staphylococcus aureus BAA-1720 in presence of 50% human serum to MIC for Staphylococcus aureus BAA-1720; type: functional
Escherichia coli [8] = experiment: Selectivity ratio of MIC for Escherichia coli ATCC 25922 in presence of 50% human serum to MIC for Escherichia coli ATCC 25922; type: functional
[9] = Selectivity ratio, ratio of IC50 for human HepG2 cells to MIC for Staphylococcus aureus ATCC 29213; type: toxicity; details: read-out: Selectivity Index
[10] = target: DNA topoisomerase 4 subunit A (Staphylococcus aureus, UniProt P0C1U9); experiment: Inhibition of Staphylococcus aureus ATCC 29213 DNA topoisomerase 4 subunit ParC assessed as reduction in decatenation of kinetoplast DNA incubated for 30 mins by ethidium bromide staining based gel electrophoresis method
Pseudomonas aeruginosa = experiment: Antibacterial activity against Pseudomonas aeruginosa ATCC 27853 after 16 to 24 hrs by CLSI method; type: functional
[11] = Selectivity ratio, ratio of IC50 for human HEK293 cells to MIC for Escherichia coli ATCC 25922; type: toxicity; details: read-out: Selectivity Index
Neisseria gonorrhoeae = experiment: Antibacterial activity against Neisseria gonorrhoeae ATCC 19424 after 16 to 24 hrs by broth microdilution method; type: functional
Escherichia coli [12] = experiment: Antibacterial activity against Escherichia coli ATCC 25922 in presence of 50% human serum after 16 to 24 hrs by broth microdilution method; type: functional
DNA gyrase subunit A [13] = target: DNA gyrase subunit A (Escherichia coli K-12, UniProt P0AES4); experiment: Inhibition of Escherichia coli ATCC 25922 DNA gyrase A assessed as reduction in enzyme-mediated supercoiling of relaxed pBR322 DNA by ethidium bromide staining based gel electrophoresis method
DNA gyrase subunit A (Escherichia coli K-12, UniProt P0AES4), sequence (P0AES4 whole entry): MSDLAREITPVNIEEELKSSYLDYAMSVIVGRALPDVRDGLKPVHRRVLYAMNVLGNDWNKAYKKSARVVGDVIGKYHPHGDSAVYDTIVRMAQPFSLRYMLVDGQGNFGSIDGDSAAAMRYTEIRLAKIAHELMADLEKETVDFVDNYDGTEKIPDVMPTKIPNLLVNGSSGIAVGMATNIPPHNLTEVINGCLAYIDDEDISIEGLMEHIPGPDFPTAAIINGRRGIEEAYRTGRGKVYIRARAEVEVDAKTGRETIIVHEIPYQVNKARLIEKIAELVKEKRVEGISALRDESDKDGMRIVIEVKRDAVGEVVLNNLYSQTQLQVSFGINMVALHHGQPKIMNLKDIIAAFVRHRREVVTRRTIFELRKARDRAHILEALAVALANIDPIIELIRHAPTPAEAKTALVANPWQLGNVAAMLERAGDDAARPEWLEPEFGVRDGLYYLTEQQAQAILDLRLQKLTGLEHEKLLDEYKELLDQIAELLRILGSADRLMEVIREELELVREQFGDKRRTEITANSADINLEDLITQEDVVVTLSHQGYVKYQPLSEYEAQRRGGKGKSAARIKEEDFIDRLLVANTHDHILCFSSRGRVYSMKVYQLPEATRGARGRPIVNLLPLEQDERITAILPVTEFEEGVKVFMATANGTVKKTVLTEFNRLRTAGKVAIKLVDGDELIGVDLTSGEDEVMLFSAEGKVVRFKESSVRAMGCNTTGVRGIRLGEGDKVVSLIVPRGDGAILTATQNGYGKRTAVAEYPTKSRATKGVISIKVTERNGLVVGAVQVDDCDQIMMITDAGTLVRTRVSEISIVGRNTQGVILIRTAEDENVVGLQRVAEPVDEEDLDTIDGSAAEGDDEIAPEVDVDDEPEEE

Klebsiella pneumoniae = experiment: Antibacterial activity against quinolone-sensitive Klebsiella pneumoniae ATCC 700603 after 16 to 24 hrs by broth microdilution method; type: functional
Enterococcus faecium = experiment: Antibacterial activity against vancomycin resistant and teicoplanin sensitive Enterococcus faecium APV 00420 after 16 to 24 hrs by broth microdilution method; type: functional
[14] = Selectivity ratio, ratio of IC50 for human HepG2 cells to MIC for Escherichia coli ATCC 25922; type: toxicity; details: read-out: Selectivity Index
HEK293 = experiment: Cytotoxicity against human HEK293 cells after 48 hrs by Alamar blue staining-based fluorometric analysis; type: cell-based; details: HEK293, 48 h
[15] = Selectivity ratio, ratio of IC50 for human HEK293 cells to MIC for Staphylococcus aureus ATCC 29213; type: toxicity; details: read-out: Selectivity Index
Escherichia coli [16] = experiment: Antibacterial activity against Escherichia coli ATCC 25922 after 16 to 24 hrs by broth microdilution method; type: functional
Staphylococcus aureus [17] = experiment: Antibacterial activity against Staphylococcus aureus ATCC 29213 after 16 to 24 hrs by broth microdilution method; type: functional
Enterococcus faecalis = experiment: Antibacterial activity against Enterococcus faecalis ATCC 29212 after 16 to 24 hrs by broth microdilution method; type: functional
Haemophilus influenzae [18] = experiment: Antibacterial activity against quinolone-sensitive Haemophilus influenzae ATCC 49766 after 16 to 24 hrs by broth microdilution method; type: functional
DNA gyrase subunit A [19] = target: DNA gyrase subunit A (Staphylococcus aureus, UniProt P20831); experiment: Inhibition of Staphylococcus aureus ATCC 29213 DNA gyrase A assessed as reduction in enzyme-mediated supercoiling of relaxed pBR322 DNA by ethidium bromide staining based gel electrophoresis method
DNA gyrase subunit A (Staphylococcus aureus, UniProt P20831), sequence (P20831 whole entry): as the sequence (P20831 whole entry) above

Staphylococcus aureus [20] = experiment: Antibacterial activity against Staphylococcus aureus ATCC 29213 in presence of 50% human serum after 16 to 24 hrs by broth microdilution method; type: functional
Staphylococcus aureus [21] = experiment: Antibacterial activity against Staphylococcus aureus BAA-1720 after 16 to 24 hrs by broth microdilution method; type: functional
Staphylococcus aureus [22] = experiment: Selectivity ratio of MIC for Staphylococcus aureus ATCC 29213 in presence of 50% human serum to MIC for Staphylococcus aureus ATCC 29213; type: functional
HepG2 = experiment: Cytotoxicity against human HepG2 cells after 48 hrs by Alamar blue staining-based fluorometric analysis; type: cell-based; details: HepG2, 48 h
[23] = target: T1, DNA topoisomerase 4 subunit A (Escherichia coli K-12, UniProt P0AFI2); experiment: Inhibition of Escherichia coli ATCC 25922 DNA topoisomerase 4 subunit ParC assessed as reduction in decatenation of kinetoplast DNA incubated for 30 mins by ethidium bromide staining based gel electrophoresis method
T1 sequence (P0AFI2 whole entry): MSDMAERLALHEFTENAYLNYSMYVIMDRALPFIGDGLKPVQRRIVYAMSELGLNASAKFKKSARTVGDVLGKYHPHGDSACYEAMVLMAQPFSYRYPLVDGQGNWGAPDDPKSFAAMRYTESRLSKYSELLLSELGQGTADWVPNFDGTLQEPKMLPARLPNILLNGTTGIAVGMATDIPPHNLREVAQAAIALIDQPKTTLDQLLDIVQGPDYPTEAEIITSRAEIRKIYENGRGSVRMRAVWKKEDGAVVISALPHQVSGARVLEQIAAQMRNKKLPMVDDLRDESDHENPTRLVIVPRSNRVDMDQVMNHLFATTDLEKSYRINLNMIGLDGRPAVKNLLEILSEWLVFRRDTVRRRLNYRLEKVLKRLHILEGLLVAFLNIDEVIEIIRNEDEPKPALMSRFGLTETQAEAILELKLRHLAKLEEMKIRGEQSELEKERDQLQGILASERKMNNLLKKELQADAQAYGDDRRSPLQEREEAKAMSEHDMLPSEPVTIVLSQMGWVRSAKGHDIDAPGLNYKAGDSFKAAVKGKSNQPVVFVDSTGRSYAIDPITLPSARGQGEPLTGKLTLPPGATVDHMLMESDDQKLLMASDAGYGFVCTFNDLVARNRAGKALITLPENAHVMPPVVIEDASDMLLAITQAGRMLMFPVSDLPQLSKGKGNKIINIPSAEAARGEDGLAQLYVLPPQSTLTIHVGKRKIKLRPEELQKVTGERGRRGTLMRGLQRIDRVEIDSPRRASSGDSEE

Haemophilus influenzae [24] = experiment: Antibacterial activity against quinolone-sensitive Haemophilus influenzae H128 after 16 to 24 hrs by broth microdilution method; type: functional
[25] = Cytotoxicity against human HCE2 cells incubated for 2 hrs by MTT assay; type: cell-based

Topoisomerase IV, sequence (P0C1U9 whole entry): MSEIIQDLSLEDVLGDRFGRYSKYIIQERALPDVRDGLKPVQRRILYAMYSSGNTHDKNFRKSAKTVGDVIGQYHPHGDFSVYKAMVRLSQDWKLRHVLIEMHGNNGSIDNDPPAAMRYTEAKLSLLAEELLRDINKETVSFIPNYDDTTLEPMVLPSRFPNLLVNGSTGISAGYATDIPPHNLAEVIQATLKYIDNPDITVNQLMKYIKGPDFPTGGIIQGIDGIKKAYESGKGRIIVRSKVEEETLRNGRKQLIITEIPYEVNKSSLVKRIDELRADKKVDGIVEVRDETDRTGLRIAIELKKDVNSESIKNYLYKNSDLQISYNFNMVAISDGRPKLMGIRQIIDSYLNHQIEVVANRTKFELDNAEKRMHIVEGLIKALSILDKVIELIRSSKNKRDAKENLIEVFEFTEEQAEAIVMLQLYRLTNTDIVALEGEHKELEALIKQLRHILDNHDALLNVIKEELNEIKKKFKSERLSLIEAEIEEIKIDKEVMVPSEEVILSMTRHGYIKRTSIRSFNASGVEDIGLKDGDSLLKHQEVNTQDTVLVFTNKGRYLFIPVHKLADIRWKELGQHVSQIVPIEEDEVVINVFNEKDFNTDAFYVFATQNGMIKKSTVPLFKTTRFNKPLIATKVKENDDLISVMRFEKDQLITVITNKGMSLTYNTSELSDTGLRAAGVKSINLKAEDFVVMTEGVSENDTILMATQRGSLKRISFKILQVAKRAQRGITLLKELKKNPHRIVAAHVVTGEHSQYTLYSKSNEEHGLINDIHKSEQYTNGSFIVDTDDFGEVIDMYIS
Topoisomerase IV, sequence (P0C1S7 whole entry): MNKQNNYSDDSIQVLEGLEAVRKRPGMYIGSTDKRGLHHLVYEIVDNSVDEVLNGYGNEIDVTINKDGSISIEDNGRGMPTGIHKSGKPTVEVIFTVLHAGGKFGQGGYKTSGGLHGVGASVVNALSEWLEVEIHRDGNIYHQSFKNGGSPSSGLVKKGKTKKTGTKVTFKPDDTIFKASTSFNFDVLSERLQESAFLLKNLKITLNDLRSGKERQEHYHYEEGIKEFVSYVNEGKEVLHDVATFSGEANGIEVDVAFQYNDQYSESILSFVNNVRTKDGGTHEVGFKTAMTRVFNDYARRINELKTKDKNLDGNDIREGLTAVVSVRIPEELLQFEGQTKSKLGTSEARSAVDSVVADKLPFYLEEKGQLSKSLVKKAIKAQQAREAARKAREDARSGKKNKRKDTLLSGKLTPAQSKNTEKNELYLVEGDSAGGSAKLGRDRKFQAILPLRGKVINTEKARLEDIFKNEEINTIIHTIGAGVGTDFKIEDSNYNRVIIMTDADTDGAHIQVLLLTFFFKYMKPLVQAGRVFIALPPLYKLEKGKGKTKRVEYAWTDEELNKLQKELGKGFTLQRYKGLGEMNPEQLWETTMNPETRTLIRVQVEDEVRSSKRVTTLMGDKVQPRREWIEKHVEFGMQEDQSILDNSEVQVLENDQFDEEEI

**Q.** With `O=C1COc2ccc(N3C[C@H](CCCN[C@@H]4Cn5c(=O)ccc6ccc(F)c4c65)OC3=O)nc2N1` as the compound, how does the IC50 (DNA gyrase [1]) read?
**A.** 125 nM

**Q.** What about the IC50 (Topoisomerase IV) of the same compound?
**A.** 2000 nM

**Q.** And the IC50 (DNA gyrase [2])?
**A.** 8 nM

**Q.** What about the MIC90 (Escherichia coli [3]) of the same compound?
**A.** 0.5 µg/mL (≈ 1.04 µM)

**Q.** What about the IC50 [4] of the same compound?
**A.** 30 nM

**Q.** What about the MIC90 (Staphylococcus aureus [5]) of the same compound?
**A.** 0.016 µg/mL (≈ 0.0334 µM)

**Q.** Which IC50 (HT-29) does the source give for `COc1ccc2cc(F)nc(N3CCN(CC(O)CNc4cc(=O)oc5ccc(F)cc45)CC3)c2c1` (racemic) here?
**A.** > 100000 nM

**Q.** And the MIC (Staphylococcus aureus [6])?
**A.** 4 µg/mL

**Q.** And the Ratio (Staphylococcus aureus [7])?
**A.** >=32 - 267

**Q.** And the Ratio (Escherichia coli [8])?
**A.** >=32 - 267

**Q.** What about the selectivity ratio [9] of the same compound?
**A.** > 208

**Q.** And the IC50 [10]?
**A.** < 100 nM

**Q.** And the MIC (Pseudomonas aeruginosa)?
**A.** 4 µg/mL (≈ 8.06 µM)

**Q.** What about the selectivity ratio [11] of the same compound?
**A.** 66

**Q.** And the MIC (Neisseria gonorrhoeae)?
**A.** ≤ 0.06 µg/mL

**Q.** And the MIC (Escherichia coli [12])?
**A.** > 8 µg/mL

**Q.** And the IC50 (DNA gyrase subunit A [13])?
**A.** 40 nM

**Q.** What about the MIC (Klebsiella pneumoniae) of the same compound?
**A.** 4 µg/mL (≈ 8.06 µM)

**Q.** And the MIC (Enterococcus faecium)?
**A.** 0.12 µg/mL (≈ 0.242 µM)

**Q.** What about the selectivity ratio [14] of the same compound?
**A.** 25

**Q.** What about the IC50 (HEK293) of the same compound?
**A.** 66000 nM

**Q.** And the selectivity ratio [15]?
**A.** > 5500

**Q.** What about the MIC (Escherichia coli [16]) of the same compound?
**A.** 1 µM (≈ 0.497 µg/mL)

**Q.** What about the MIC (Staphylococcus aureus [17]) of the same compound?
**A.** < 0.12 µM

**Q.** And the MIC (Enterococcus faecalis)?
**A.** 0.25 µg/mL (≈ 0.504 µM)

**Q.** And the MIC (Haemophilus influenzae [18])?
**A.** 0.5 µg/mL (≈ 1.01 µM)

**Q.** And the IC50 (DNA gyrase subunit A [19])?
**A.** < 100 nM

**Q.** And the MIC (Staphylococcus aureus [20])?
**A.** 8 µg/mL

**Q.** And the MIC (Staphylococcus aureus [21])?
**A.** 0.03 µg/mL (≈ 0.0604 µM)

**Q.** What about the Ratio (Staphylococcus aureus [22]) of the same compound?
**A.** >=32 - 267

**Q.** And the IC50 (HepG2)?
**A.** 25000 nM

**Q.** And the IC50 [23]?
**A.** 100 nM

**Q.** And the MIC (Haemophilus influenzae [24])?
**A.** 0.5 µg/mL (≈ 1.01 µM)

**Q.** And the IC50 [25]?
**A.** > 150000 nM

From ChEMBL document CHEMBL4373693, “Virtual Screening Approach and Investigation of Structure-Activity Relationships To Discover Novel Bacterial Topoisomerase Inhibitors Targeting Gram-Positive and Gram-Negative Pathogens” (J Med Chem, 2019)
